ChEMBL document CHEMBL1157036, “QSPR modeling of octanol/water partition coefficient of antineoplastic agents by balance of correlations” (Eur J Med Chem, 2010)

test: not given; settings: octanol/water

With `CN(C)/N=N/c1[nH]cnc1C(N)=O` [DACARBAZINE] as the molecule, how does the logP read?
Its logP is -1.6.

With `Nc1nc2[nH]cc(CCc3ccc(C(=O)N[C@@H](CCC(=O)O)C(=O)O)cc3)c2c(=O)[nH]1` [PEMETREXED] as the molecule, how does the logP read?
Its logP is -1.5.

For `Cn1nnc2c(C(N)=O)ncn2c1=O` [TEMOZOLOMIDE], which logP is on record?
The logP was -2.8.

For `COc1cc([C@@H]2c3cc4c(cc3[C@@H](O[C@@H]3O[C@@H]5CO[C@@H](c6cccs6)O[C@H]5[C@H](O)[C@H]3O)[C@H]3COC(=O)[C@H]23)OCO4)cc(OC)c1O` [TENIPOSIDE], which logP is on record?
The logP was 1.5.

For `CC[C@]1(O)C[C@@H]2CN(CCc3c([nH]c4ccccc34)[C@@](C(=O)OC)(c3cc4c(cc3OC)N(C)[C@H]3[C@@](O)(C(=O)OC)[C@H](OC(C)=O)[C@]5(CC)C=CCN6CC[C@]43[C@@H]65)C2)C1` [VINBLASTINE], which logP is on record?
The logP was 3.9.

test: physchem; settings: octanol/water
Description: Octanol-water partition coefficient, log P of the compound

For `N[C@@H](Cc1ccc(N(CCCl)CCCl)cc1)C(=O)O`, which logP is on record?
The logP was 0.4.

Which logP does the source give for `CN(C)c1nc(N(C)C)nc(N(C)C)n1` [ALTRETAMINE] here?
The logP was 1.7.

Which logP does the source give for `NCC(=O)CCC(=O)O` [AMINOLEVULINIC ACID] here?
Its logP is -1.5.

With `COc1cc(NS(C)(=O)=O)ccc1Nc1c2ccccc2nc2ccccc12` [AMSACRINE] as the molecule, how does the logP read?
The logP was 3.8.

Which logP does the source give for `O=C1CN2Cc3c(ccc(Cl)c3Cl)N=C2N1` [ANAGRELIDE] here?
The logP was 2.4.

For `C=C(c1ccc(C(=O)O)cc1)c1cc2c(cc1C)C(C)(C)CCC2(C)C` [BEXAROTENE], which logP is on record?
Its logP is 6.9.

For `CS(=O)(=O)OCCCCOS(C)(=O)=O` [BUSULFAN], which logP is on record?
The logP was -0.3.

For `CCCCCOC(=O)Nc1nc(=O)n([C@@H]2O[C@H](C)[C@@H](O)[C@H]2O)cc1F` [CAPECITABINE], which logP is on record?
The logP was 0.4.

For `Cc1ccc(-c2cc(C(F)(F)F)nn2-c2ccc(S(N)(=O)=O)cc2)cc1` [CELECOXIB], which logP is on record?
The logP was 3.9.

Which logP does the source give for `O=C(O)CCCc1ccc(N(CCCl)CCCl)cc1` [CHLORAMBUCIL] here?
Its logP is 3.9.

For `Nc1nc(Cl)nc2c1ncn2[C@@H]1O[C@H](CO)[C@@H](O)[C@@H]1F` [CLOFARABINE], which logP is on record?
The logP was 0.

Which logP does the source give for `O=P1(N(CCCl)CCCl)NCCCO1` (configuration not stated) [CYCLOPHOSPHAMIDE ANHYDROUS] here?
Its logP is 0.8.

Which logP does the source give for `COc1cccc2c1C(=O)c1c(O)c3c(c(O)c1C2=O)C[C@@](O)(C(C)=O)C[C@@H]3O[C@H]1C[C@H](N)[C@H](O)[C@H](C)O1` [DAUNORUBICIN] here?
The logP was 0.1.

With `COc1cccc2c1C(=O)c1c(O)c3c(c(O)c1C2=O)C[C@@](O)(C(=O)CO)C[C@@H]3O[C@H]1C[C@H](N)[C@H](O)[C@H](C)O1` [DOXORUBICIN] as the molecule, how does the logP read?
Its logP is -0.5.

For `COc1cccc2c1C(=O)c1c(O)c3c(c(O)c1C2=O)C[C@@](O)(C(=O)CO)C[C@@H]3O[C@H]1C[C@H](N)[C@@H](O)[C@H](C)O1` [EPIRUBICIN], which logP is on record?
The logP was -0.5.

With `C[C@]12CC[C@@H]3c4ccc(OC(=O)N(CCCl)CCCl)cc4CC[C@H]3[C@@H]1CC[C@@H]2O` [ESTRAMUSTINE] as the molecule, how does the logP read?
The logP was 5.7.

For `Nc1nc(F)nc2c1ncn2[C@@H]1O[C@H](CO)[C@@H](O)[C@@H]1O` [FLUDARABINE], which logP is on record?
The logP was -2.8.

With `O=c1[nH]cc(F)c(=O)[nH]1` [FLUOROURACIL] as the molecule, how does the logP read?
Its logP is -0.8.

Which logP does the source give for `Nc1ccn([C@@H]2O[C@H](CO)[C@@H](O)C2(F)F)c(=O)n1` [GEMCITABINE] here?
Its logP is -1.4.

With `CC(=O)[C@]1(O)Cc2c(O)c3c(c(O)c2[C@@H](O[C@H]2C[C@H](N)[C@H](O)[C@H](C)O2)C1)C(=O)c1ccccc1C3=O` [IDARUBICIN] as the molecule, how does the logP read?
Its logP is 0.2.

Which logP does the source give for `O=P1(NCCCl)OCCCN1CCCl` (configuration not stated) [IFOSFAMIDE] here?
The logP was 0.8.

With `O=NN(CCCl)C(=O)NC1CCCCC1` [LOMUSTINE] as the molecule, how does the logP read?
The logP was 3.

For `Sc1ncnc2nc[nH]c12` [MERCAPTOPURINE ANHYDROUS], which logP is on record?
The logP was -0.4.

Which logP does the source give for `CN(Cc1cnc2nc(N)nc(N)c2n1)c1ccc(C(=O)N[C@@H](CCC(=O)O)C(=O)O)cc1` [METHOTREXATE] here?
The logP was -2.2.

Which logP does the source give for `COC(=O)CCC(=O)CN` [METHYL AMINOLEVULINATE] here?
The logP was -1.2.

With `Clc1ccc(C(c2ccccc2Cl)C(Cl)Cl)cc1` (configuration not stated) [MITOTANE] as the molecule, how does the logP read?
Its logP is 6.

Which logP does the source give for `O=C1c2c(O)ccc(O)c2C(=O)c2c(NCCNCCO)ccc(NCCNCCO)c21` [MITOXANTRONE] here?
The logP was -3.1.

Which logP does the source give for `CC(=O)O[C@H]1C(=O)[C@@]2(C)[C@H]([C@H](OC(=O)c3ccccc3)[C@]3(O)C[C@H](OC(=O)[C@H](O)[C@@H](NC(=O)c4ccccc4)c4ccccc4)C(C)=C1C3(C)C)[C@]1(OC(C)=O)CO[C@@H]1C[C@@H]2O` [PACLITAXEL] here?
The logP was 3.

For `OC[C@H]1O[C@@H](n2cnc3c2NC=NC[C@H]3O)C[C@@H]1O` [PENTOSTATIN], which logP is on record?
The logP was -1.1.

With `O=C(CCBr)N1CCN(C(=O)CCBr)CC1` [PIPOBROMAN] as the molecule, how does the logP read?
Its logP is 1.1.

Which logP does the source give for `Cc1nc2ccc(CN(C)c3ccc(C(=O)N[C@@H](CCC(=O)O)C(=O)O)s3)cc2c(=O)[nH]1` [RALTITREXED] here?
Its logP is -1.2.

Which logP does the source give for `CN(N=O)C(=O)N[C@@H](C=O)[C@@H](O)[C@H](O)[C@H](O)CO` [STREPTOZOCIN] here?
Its logP is -1.7.

For `Nc1nc2nc[nH]c2c(=S)[nH]1` [THIOGUANINE], which logP is on record?
The logP was -0.7.

For `CC[C@@]1(O)C(=O)OCc2c1cc1n(c2=O)Cc2cc3c(CN(C)C)c(O)ccc3nc2-1` [TOPOTECAN], which logP is on record?
Its logP is 0.8.

Which logP does the source give for `CCCCC(=O)OCC(=O)[C@]1(O)Cc2c(O)c3c(c(O)c2[C@@H](O[C@H]2C[C@H](NC(=O)C(F)(F)F)[C@H](O)[C@H](C)O2)C1)C(=O)c1c(OC)cccc1C3=O` [VALRUBICIN] here?
The logP was 2.2.

With `CC[C@]1(O)C[C@@H]2CN(CCc3c([nH]c4ccccc34)[C@@](C(=O)OC)(c3cc4c(cc3OC)N(C)[C@H]3[C@@](O)(C(N)=O)[C@H](O)[C@]5(CC)C=CCN6CC[C@]43[C@@H]65)C2)C1` [VINDESINE] as the molecule, how does the logP read?
The logP was 2.9.

For `CCC1=C[C@@H]2CN(C1)Cc1c([nH]c3ccccc13)[C@@](C(=O)OC)(c1cc3c(cc1OC)N(C)[C@H]1[C@@](O)(C(=O)OC)[C@H](OC(C)=O)[C@]4(CC)C=CCN5CC[C@]31[C@@H]54)C2` [VINORELBINE], which logP is on record?
The logP was 4.
